As a reminder, the IC50 is the concentration that gives 50% inhibition. A high value points to weaker potency. A word on the CLint scaled: it is a measure of how fast metabolising enzymes remove a compound, apart from limits set by blood flow.

The values below come from patent US20240239813A1, “KRAS INHIBITORS AND PHARMACEUTICAL USES THEREOF” (RISEN (SUZHOU) PHARMA TECH CO., LTD., priority 2022, published 2024).

The subject of data set [1] is phosphorylation of p-ERK1/2 in AsPC-1. Briefly: Cellular phospho-ERK inhibition, AsPC-1. Type of data set: cell-based. The note with it: Homo sapiens, ASPC1; AsPC-1, 4 hours. Here is the method: (§1) The ability of exemplary test compounds to inhibit the phosphorylation of p-ERK1/2, which is the downstream effector of KRas in multiple human cancer cell lines such as AsPC-1 (Cobioer, CBP60546), GP2D (Cobioer, CBP60683), NCI-H358 (Cobioer, CBP60544), NCI-H727 (Cobioer, CBP60182), MKN-1 (Cobioer, CBP60486), HCT116 (ATCC, CCL-247), and HT-29 (Cobioer, CBP60011), was measured. Signal reflecting cell proliferation was detected with the Advanced phospho-ERK (Thr202/Tyr204) cellular kit (Cisbio, 64AERPEG).
(§2) Cells were cultured in the growth phase and 3×10^4 cells per well were plated in a 96-well plate (Corning, 3599). Cells were incubated 24 hours at 37° C. and 5% carbon dioxide in a humidity chamber. Serially diluted exemplary compounds were added to the cell plate which was then incubated for another 4 hours in a humid tray at 37° C. and 5% carbon dioxide. 1× Lysis buffer (Cisbio, 64AERPEG) was prepared at ambient temperature. Cell culture medium was removed, then lysis buffer (50 μL/well) was added to the cell plate and the plate was incubated at room temperature for 30 minutes on a shaker. […] The luminescent signal was measured on the VICTOR Nivo multimode plate reader according to the manufacturer's instructions. […]
(§3) IC50 was determined by fitting percent inhibition at each inhibitor concentration to the four-parameter nonlinear logistic equation using GraphPad Prism. […]

Data set [2] deals with phosphorylation of p-ERK1/2 in HT-29. Put plainly: Cellular phospho-ERK inhibition, HT-29. Format: cell-based. The note with it: Homo sapiens; HT-29, 4 hours. The protocol:
as §1, §2, §3

Data set [3] relates to phosphorylation of p-ERK1/2 in HCT-116. Put plainly: Cellular phospho-ERK inhibition, HCT-116. Format: cell-based. The note with it: Homo sapiens; HCT-116, 4 hours. Here is the method:
as §1, §2, §3

In data set [4] the test system is phosphorylation of p-ERK1/2 in GP2D. Briefly: Cellular phospho-ERK inhibition, GP2D. Format: cell-based. The note with it: Homo sapiens, 4 hours. Here is the method: as §1, §2, §3
Data set [5] deals with phosphorylation of p-ERK1/2 in NCI-H727. Put plainly: Cellular phospho-ERK inhibition, NCI-H727. Type of data set: cell-based. The note with it: Homo sapiens; NCI-H727, 4 hours. The protocol: as §1, §2, §3
The test system of data set [6] is phosphorylation of p-ERK1/2 in NCI-H358. Briefly: Cellular phospho-ERK inhibition, NCI-H358. Format: cell-based. The note with it: Homo sapiens; NCI-H358, 4 hours. The protocol: as §1, §2, §3
For data set [7], the system named is phosphorylation of p-ERK1/2 in MKN-1. Put plainly: Cellular phospho-ERK inhibition, MKN-1. Type of data set: cell-based. The note with it: Homo sapiens; MKN-1, 4 hours. The protocol: as §1, §2, §3
The nature of data set [8]: Microsomal stability assay, rat liver microsomes. Type of data set: in vitro ADME. The note with it: SD, pooled rat liver microsomes, 0.5 mg/mL protein. The protocol:
(§4) Test results from this assay were used to determine the metabolic liabilities of test compounds and allow focus on the improvement of drug candidates through structure-activity relationships. Pooled mouse/rat/human liver microsomes were used for this assay
(§5) In vitro mouse (CD-1, BioIVT)/rat (SD, RILD)/human (Corning) liver microsomal suspensions at 0.5 mg/mL protein and 1.3 mM NADPH, 3.3 mM MgCl2 were pre incubated at 37° C. for 3 mins prior to addition of 0.1 mM test compound solution to give a final incubation concentration of 1 μM. Samples were incubated for 0, 15, 30, 60 minutes at 37° C. on a shaker (the positive control substance was cultured for 0 or 60 minutes). At the end of each incubation time both incubated and control samples were quenched with ice-cold stop solution containing internal standard. All samples were mixed by a plate shaker at 800 rpm for 5 minutes, then centrifuged at 4100 rpm for 15 minutes at 4° C. to precipitate protein. Supernatant was transferred to another 96-well plate, dilution solution was added to each supernatant well, and then each bioanalysis plate was sealed. The samples were mixed by plate shaker at 800 rpm for 5 minutes and then centrifuged at 4° C., 4100 rpm for 5 minutes. All samples were stored at 4° C. before LC-MS/MS analysis.
(§6) The peak area ratio was converted to the remaining percentages (% Remaining) using the following formula: […]
(§7) where % Remaining is the compound ratio (compound peak area/internal standard peak area) as a percentage of the 0 minute time point.
(§8) The ln remaining percent of test articles were plotted against time and the gradient of the line determined; the gradient was converted to elimination rate constant by using the following formula:
(§9) Elimination rate constant(ke)=−gradient
(§10) Half time (T1/2) was determined using following formula: […]
(§11) Hepatic intrinsic clearance (CLint(liver)) was determined by using the following formulas: […]
(§12) The Intrinsic clearance of selected compounds is depicted in Table 6.
On the technique in general: Microsomes from liver hold many membrane-bound enzymes, among them those of drug oxidation.

The subject of data set [9] is HT-29. Briefly: Cell proliferation assay (CellTiterGlo), HT-29. The note with it: Homo sapiens, HT-29, 72 hours. Type of data set: cell-based. The protocol:
(§13) A cell proliferation assay was used to evaluate inhibition by exemplary compounds. Proliferation assays used human tissue derived cancer cell lines, for example, AsPC-1 (Cobioer, CBP60546), GP2D (Cobioer, CBP60683), NCI-H358 (Cobioer, CBP60544), NCI-H727 (Cobioer, CBP60182), MKN-1 (Cobioer, CBP60486), HCT116 (ATCC, CCL-247), and HT-29 (Cobioer, CBP60011). Signal reflecting cell proliferation was detected with the CellTiterGlo kit (Promega, G7573).
(§14) Cells were cultured in the growth phase and 3×10^3 cells per well were plated in a 96-well plate (Greiner, 655090). Cells were incubated 24 hours at 37° C. and 5% carbon dioxide in a humidity chamber. […] After 10 minutes incubation at room temperature to stabilize the signal, the luminescent signal was measured on the VICTOR Nivo multimode plate reader according to the manufacturer's instructions. […]
(§15) (where the “Maximum Signal” are wells containing DMSO without inhibitor; the “Minimum Signal” are signal of wells recorded at Day 0 prior to commencement of the experiment; the “Test compound signal” are wells containing inhibitor at established concentrations).
(§16) IC50 was determined by fitting percent inhibition at each inhibitor concentration to the four-parameter nonlinear logistic equation using GraphPad Prism. […] “-”: means without measuring; and “ND” means not detected.

The test system of data set [10] is GP2D. Briefly: Cell proliferation assay (CellTiterGlo), GP2D. The note with it: Homo sapiens, 72 hours. Format: cell-based. Here is the method:
as §13
(§17) Cells were cultured in the growth phase and 3×10^3 cells per well were plated in a 96-well plate (Greiner, 655090). Cells were incubated 24 hours at 37° C. and 5% carbon dioxide in a humidity chamber. Serially diluted exemplary compounds were added to the plate which was then incubated for another 72 hours. Plates were brought to room temperature and an equal volume of CellTiterGlo reagent was added. After 10 minutes incubation at room temperature to stabilize the signal, the luminescent signal was measured on the VICTOR Nivo multimode plate reader according to the manufacturer's instructions. The signal was converted to percent inhibition using the following formula: […]
as §15
(§18) IC50 was determined by fitting percent inhibition at each inhibitor concentration to the four-parameter nonlinear logistic equation using GraphPad Prism. IC50 (nM) values of selected compounds are depicted in Table 4. “-”: means without measuring; and “ND” means not detected.
In general terms: In ATP-based viability assays light output follows the ATP content of the culture.

Data set [11] deals with HCT-116. Briefly: Cell proliferation assay (CellTiterGlo), HCT-116. The note with it: Homo sapiens, HCT-116, 72 hours. Format: cell-based. The protocol:
as §13, §14, §15, §16

A short description of data set [12]: Microsomal stability assay, mouse liver microsomes. Format: in vitro ADME. The note with it: CD-1, pooled mouse liver microsomes, 0.5 mg/mL protein. Here is the method:
as §4, §5, §6, §7, §8, §9, §10, §11, §12

Data set [13] deals with NCI-H727. Put plainly: Cell proliferation assay (CellTiterGlo), NCI-H727. The note with it: Homo sapiens, NCI-H727, 72 hours. Format: cell-based. The protocol: as §13, §17, §15, §18
Data set [14] relates to NCI-H358. Briefly: Cell proliferation assay (CellTiterGlo), NCI-H358. Format: cell-based. The note with it: Homo sapiens, NCI-H358, 72 hours. Here is the method: as §13, §17, §15, §18
Data set [15] deals with AsPC-1. Put plainly: Cell proliferation assay (CellTiterGlo), AsPC-1. The note with it: Homo sapiens, ASPC1, AsPC-1, 72 hours. Format: cell-based. The protocol:
as §13, §17, §15, §18

Data set [16] in a line: Microsomal stability assay, human liver microsomes. Type of data set: in vitro ADME. The note with it: pooled human liver microsomes, 0.5 mg/mL protein. Here is the method:
as §4, §5, §6, §7, §8, §9, §10, §11, §12

Data set [17] concerns MKN-1. Briefly: Cell proliferation assay (CellTiterGlo), MKN-1. Format: cell-based. The note with it: Homo sapiens, MKN-1, 72 hours. Here is the method: as §13, §17, §15, §18

As for `CCc1c(F)ccc2cc(O)cc(-c3ncc4c(N5CCCC6(CCO6)C5)nc(OC[C@@]56CCCN5C[C@H](F)C6)nc4c3F)c12` (some centres unmarked) [Compound 25], the IC50 in data set [1] is 17.4 nM; in [2], > 1000 nM; in data set [3], 173 nM; in data set [4], 3.36 nM; in data set [5] it was 110 nM; in data set [6], 83.7 nM. For the same compound, the IC50 in data set [7] amounted to 8.25 nM.
In the case of `CCc1c(F)ccc2cc(O)cc(-c3ncc4c(N5CCCC(C)(O)C5)nc(OC[C@@]56CCCN5C[C@H](F)C6)nc4c3F)c12` (some centres unmarked) [Compound A1, reference compound], the CLint scaled at 1 μM in data set [8] was found to be 111 mL/min/kg; in data set [12], 1180 mL/min/kg; in [16], 46 mL/min/kg. Moreover, the half-maximal inhibitory concentration (IC50) in data set [9] worked out at 7730 nM; in data set [10], 15.7 nM; in data set [11] it was 1430 nM; in [13], 130 nM; in data set [14], 152 nM; in data set [15] it was 161 nM. Inhibition in [17] was half-maximal at 144 nM (IC50).
